Test [1] concerns α2-macroglobulin released from glia cells. The experiment in a line: α2-macroglobulin released from primary cultured glia cells (immunoblotting of culture supernatant). The test is classed as cell-based. Conditions: 100 or 1,000 ng/mL; culture supernatant after 24 hours. How it is done:
This example was to examine the amount of α2-macroglobulin released from the glia cells. To a culture mixture of the glia cells obtained by the primary culture, human lipoprotein containing apoE (100 or 1,000 ng/mL) was added, followed by collection of a culture supernatant after 24 hours. After the resulting supernatant was subjected to SDS-PAGE, it was detected by the immunoblotting using anti-α2-macroglobulin antibody. As a result, a decrease in the amount of α2-macroglobulin released from the glia cells was observed by the addition of the human lipoprotein containing apoE (FIG. 18).
A general note: In western blotting, separated proteins are transferred to a membrane and probed.

Test [2] has as its system glycogen synthase kinase 3β (GSK3β). The experiment in a line: GSK3β phosphorylation level in RGC after glutamic acid treatment (Western blotting). The class given is cell-based, rat. The following applies: cells collected 18 hours after treatment with glutamic acid. How it is done: The apoptosis-like cells were computed by the nucleus staining with Hoechst 33342. […] The retinal glia cells were collected in 18 hours after treatment with glutamic acid, followed by Western blotting in which a rabbit anti-phosphorylated GSK3β (p-GSK3β) antibody and a rabbit anti-GSK3β antibody were used.
The immune blotting used in the above example was carried out in a manner as will be described below. Specifically, the lipoprotein obtained in each of the above examples was dissolved in 62.5 mM Tris-HCl (pH 6.8), 10% glycerol, 2% sodium dodecyl sulfate (SDS) and 5% β-mercaptoethanol (a sample buffer), and the resulting mixture was boiled for 5 minutes. The resulting protein was separated by electrophoresis using 0.1% SDS-containing polyacrylamide gel and then transferred to a polyvinylidene difluoride membrane. […]

The target of test [3] is T1, complex of LRP1 and NMDA receptor (Rattus norvegicus, UniProt G3V928).
T1 construct: endogenous in cells
T1 sequence (G3V928 20-3944 limits assumed, one chain of several): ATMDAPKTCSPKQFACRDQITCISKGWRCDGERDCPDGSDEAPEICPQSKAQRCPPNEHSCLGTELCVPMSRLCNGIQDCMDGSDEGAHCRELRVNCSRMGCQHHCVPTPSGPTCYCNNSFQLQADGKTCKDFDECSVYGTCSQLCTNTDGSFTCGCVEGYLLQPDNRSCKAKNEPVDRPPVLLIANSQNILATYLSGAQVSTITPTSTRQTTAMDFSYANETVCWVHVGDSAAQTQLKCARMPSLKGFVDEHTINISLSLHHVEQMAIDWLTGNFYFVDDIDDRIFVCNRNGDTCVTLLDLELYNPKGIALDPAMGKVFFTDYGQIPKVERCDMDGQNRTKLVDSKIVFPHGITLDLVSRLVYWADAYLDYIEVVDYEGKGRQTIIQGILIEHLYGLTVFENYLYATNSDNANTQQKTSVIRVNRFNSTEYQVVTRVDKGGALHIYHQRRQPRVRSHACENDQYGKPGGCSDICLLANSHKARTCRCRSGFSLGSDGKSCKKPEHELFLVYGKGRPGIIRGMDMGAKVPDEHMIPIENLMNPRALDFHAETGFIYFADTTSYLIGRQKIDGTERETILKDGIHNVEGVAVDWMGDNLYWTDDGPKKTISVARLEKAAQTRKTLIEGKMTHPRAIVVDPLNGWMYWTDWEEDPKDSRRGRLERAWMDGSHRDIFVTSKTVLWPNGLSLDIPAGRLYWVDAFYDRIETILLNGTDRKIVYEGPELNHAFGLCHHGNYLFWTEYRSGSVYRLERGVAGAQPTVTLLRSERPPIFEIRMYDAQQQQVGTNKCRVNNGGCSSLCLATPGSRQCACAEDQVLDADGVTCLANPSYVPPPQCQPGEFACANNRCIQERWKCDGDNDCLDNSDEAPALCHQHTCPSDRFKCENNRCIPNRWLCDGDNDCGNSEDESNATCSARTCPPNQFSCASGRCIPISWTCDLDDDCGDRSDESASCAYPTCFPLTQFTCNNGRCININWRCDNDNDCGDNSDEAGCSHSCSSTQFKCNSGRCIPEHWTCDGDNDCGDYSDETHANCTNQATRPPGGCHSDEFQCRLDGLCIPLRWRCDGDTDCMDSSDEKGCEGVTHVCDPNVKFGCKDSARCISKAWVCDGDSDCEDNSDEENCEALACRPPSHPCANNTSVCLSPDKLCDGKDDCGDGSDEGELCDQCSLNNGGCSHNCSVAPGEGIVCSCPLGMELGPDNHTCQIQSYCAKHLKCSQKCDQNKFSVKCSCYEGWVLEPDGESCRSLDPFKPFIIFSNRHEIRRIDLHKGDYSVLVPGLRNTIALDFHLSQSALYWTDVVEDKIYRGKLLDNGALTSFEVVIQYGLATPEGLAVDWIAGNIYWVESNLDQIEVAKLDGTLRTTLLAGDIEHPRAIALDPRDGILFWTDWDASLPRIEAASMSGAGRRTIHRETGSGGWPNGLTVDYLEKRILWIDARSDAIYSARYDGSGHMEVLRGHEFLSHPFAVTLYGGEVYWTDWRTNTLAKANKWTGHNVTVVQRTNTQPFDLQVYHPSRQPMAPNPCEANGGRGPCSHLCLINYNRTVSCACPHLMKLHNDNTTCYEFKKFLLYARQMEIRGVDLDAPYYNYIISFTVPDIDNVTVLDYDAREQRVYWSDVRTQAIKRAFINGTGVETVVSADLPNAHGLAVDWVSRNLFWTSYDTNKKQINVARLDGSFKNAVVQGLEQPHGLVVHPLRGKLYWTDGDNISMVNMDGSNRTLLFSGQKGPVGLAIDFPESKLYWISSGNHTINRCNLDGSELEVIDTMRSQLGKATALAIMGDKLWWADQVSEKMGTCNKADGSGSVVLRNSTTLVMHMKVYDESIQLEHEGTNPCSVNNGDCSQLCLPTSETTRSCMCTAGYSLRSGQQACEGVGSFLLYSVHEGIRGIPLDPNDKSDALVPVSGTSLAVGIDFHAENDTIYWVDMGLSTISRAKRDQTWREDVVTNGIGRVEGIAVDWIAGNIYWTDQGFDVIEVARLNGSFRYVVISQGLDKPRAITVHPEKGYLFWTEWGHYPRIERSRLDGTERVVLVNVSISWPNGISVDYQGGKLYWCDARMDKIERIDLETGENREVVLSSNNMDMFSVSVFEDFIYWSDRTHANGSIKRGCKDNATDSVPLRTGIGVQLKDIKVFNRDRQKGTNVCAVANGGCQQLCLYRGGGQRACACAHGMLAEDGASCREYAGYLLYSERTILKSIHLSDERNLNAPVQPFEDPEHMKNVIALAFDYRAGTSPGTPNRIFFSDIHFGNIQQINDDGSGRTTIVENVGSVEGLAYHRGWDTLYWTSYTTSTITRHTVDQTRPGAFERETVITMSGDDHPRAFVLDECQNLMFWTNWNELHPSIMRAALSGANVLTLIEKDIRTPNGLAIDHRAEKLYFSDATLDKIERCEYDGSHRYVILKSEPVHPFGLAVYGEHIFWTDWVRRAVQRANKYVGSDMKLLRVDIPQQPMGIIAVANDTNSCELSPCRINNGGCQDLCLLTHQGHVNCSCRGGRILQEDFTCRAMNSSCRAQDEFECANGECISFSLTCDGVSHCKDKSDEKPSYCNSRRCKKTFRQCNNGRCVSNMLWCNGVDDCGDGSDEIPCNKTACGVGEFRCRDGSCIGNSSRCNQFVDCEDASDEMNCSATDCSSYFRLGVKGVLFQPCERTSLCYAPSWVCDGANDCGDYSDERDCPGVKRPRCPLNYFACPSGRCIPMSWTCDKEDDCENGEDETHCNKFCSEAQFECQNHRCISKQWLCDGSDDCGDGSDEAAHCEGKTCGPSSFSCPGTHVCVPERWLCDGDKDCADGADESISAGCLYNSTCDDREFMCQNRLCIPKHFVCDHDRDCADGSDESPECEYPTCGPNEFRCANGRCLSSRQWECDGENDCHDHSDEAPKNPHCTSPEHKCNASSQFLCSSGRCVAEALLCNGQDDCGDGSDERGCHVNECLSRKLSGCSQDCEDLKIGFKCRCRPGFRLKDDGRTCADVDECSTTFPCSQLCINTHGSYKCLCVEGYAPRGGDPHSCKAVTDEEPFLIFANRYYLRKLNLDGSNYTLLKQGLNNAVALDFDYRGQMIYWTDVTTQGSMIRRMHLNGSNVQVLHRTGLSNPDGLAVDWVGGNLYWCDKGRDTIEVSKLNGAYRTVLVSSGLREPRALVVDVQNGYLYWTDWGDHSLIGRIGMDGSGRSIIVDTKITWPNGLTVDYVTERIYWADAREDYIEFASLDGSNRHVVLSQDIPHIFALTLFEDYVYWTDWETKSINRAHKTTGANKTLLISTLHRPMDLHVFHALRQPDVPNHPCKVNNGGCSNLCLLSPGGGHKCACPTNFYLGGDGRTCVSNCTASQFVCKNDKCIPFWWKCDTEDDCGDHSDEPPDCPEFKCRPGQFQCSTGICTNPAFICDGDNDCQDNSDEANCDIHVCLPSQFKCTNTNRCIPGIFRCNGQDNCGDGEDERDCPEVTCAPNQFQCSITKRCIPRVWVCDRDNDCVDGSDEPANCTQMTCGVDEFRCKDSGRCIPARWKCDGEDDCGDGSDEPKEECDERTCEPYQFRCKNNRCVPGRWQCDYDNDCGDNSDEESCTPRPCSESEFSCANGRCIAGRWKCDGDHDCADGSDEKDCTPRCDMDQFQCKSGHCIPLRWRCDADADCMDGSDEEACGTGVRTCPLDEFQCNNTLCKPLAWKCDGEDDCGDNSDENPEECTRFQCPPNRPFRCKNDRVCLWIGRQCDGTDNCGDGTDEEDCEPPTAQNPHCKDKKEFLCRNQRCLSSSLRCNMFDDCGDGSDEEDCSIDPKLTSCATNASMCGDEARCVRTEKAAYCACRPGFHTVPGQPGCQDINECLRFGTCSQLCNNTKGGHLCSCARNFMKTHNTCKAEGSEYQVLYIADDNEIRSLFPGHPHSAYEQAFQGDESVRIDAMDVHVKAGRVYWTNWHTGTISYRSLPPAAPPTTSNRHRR
Nature of the test: Immune precipitation of LRP1-NMDA receptor complex from RGC. Conditions: LP added to RGC culture, cells collected in 15 minutes; anti-NMDA receptor 2B immune precipitation. The class given is cell-based. How it is done: LP was added to a culture liquid of the retinal glia cells and the cells were collected in 15 minutes, followed by the immune precipitation as will be described below. For the immune precipitation, a rabbit anti-NMDA receptor 2B antibody was used, and the Western blotting was performed for LRP1 and NMDA receptor 2B.
The immune precipitation was carried out in the manner as will be described below. Specifically, the co-immunoprecipitation was performed in accordance with procedures of May et al. (May et al., 2004) by using a mixed solution prepared by adding a RGC dissolved solution to a mixed solution of a complete EDTA-free protease inhibitor cocktail (Roche, Mannheim, Germany) and a PhosSTOP phosphatase inhibitor cocktail (Roche) and a mixture of 10 mM Tris-HCl (pH7.4), 150 mM NaCl, 1 mM MgCl2, 1 mM CaCl2 and 1% Triton X-100. RGC was washed once with HBSS and collected on a 96-well plate using 40 μl per well of a dissolving buffer. The dissolved solutions from wells 9-12 were combined in each group. The RGC dissolved solution was passed fifteen times through a 22-gauge needle and then centrifuged at 15,000×g for 15 minutes at 4° C. The resulting supernatant was pretreated at 4° C. for 1 hour with 40 μl of 50% equilibrated protein G-Sepharose (GE Healthcare, Buckinghamshire, UK), and the Sepharose beads were removed by centrifugation. […]

With “E-LP: reconstituted lipoprotein of 1-palmitoyl-2-oleyl-glycerophosphocoline, cholesterol and recombinant human apolipoprotein E, molar ratio 100:10:1 or 100:0:1”, the “amount of α2-macroglobulin released from the glia cells” value in test [1] is recorded as “decrease”.
Consider “LP: reconstituted lipoprotein of POPC, cholesterol and recombinant human apolipoprotein E3”, for which the “phosphorylation level of GSK3β” value in test [2] was “recovery”. Besides, in test [3], the “formation of a complex of LRP1 and NMDA receptor” value is “promotes”.
